Experimental data taken from patent EP0210227B1, “PYRIMIDINE SULFATES FOR HAIR GROWTH” (THE UPJOHN COMPANY, priority 1985, dated 1986).
Counter-ions that a name gives are not always drawn.

Legend:
Assay type in all cases: in vivo
[1] = tested on: Balb/c nu/nu male mice; test: Hair growth in nude mice, daily oral or topical drug (Example 3); conditions: six week old mice
Source text: (§1) The present invention is illustrated by the Examples, below. Examples 1-3 illustrate the effect of minoxidil sulfate (a compound of the present invention) and minoxidil (the corresponding N-oxide) in genetically identical hair-deficient mice called "nude" (nu/nu) (see Flanagen, Genet. Res. 8:295-309 (1966)). […] All mice in the species mus grow hair in a definite, 20 day cycle, going from head to tail (see Barom, Acta Path. Micro. Scan. 34: 521-541 (1954)). "Nude" mice have the same pattern (see Eton, Transplantation 22: 217-222 (1976)). Hair fails to appear in the nude mouce since it never emerges due to the fact that the hair shaft is incompletely formed, poorly keratinized, or both. The nacent hair shafts fragment within the follicle and thus never emerge or break near the skin surface. The hair produced in the nude mice treated with the compounds described below is more normal and mechanically competent to emerge and persit. Eventually, however, even the hair produced in the drug treated animals falls out due to the genetic defect of these animals. Nonetheless, significant differences in hair growth can be observed in the drug treated animals as compared to the control animals during the twenty day cycle.
(§2) In the Examples, five photographs were taken of the animals every six days over a four week period.
Six week old Balb/c nu/nu male mice were given daily oral drug (without resting on weekends) in 0.25 ml water. Topical minoxidil sulfate was applied in 0.25 ml of a propylene glycol, ethanol, and watervehicle.

[2] = tested on: hair-deficient mice called "nude" (nu/nu); test: Hair growth in nude mice, oral drug daily without resting on weekends (Example 2); conditions: for Score of Photos 1+ (Number of animals with at least 1 of 5 photos showing positive hair growth) / Score of Photos 2+ (Number of animals with at least 2 of 5 photos showing positive hair growth): Example 2, daily, eleven week old mice; for inducing hair growth, compared with minoxidil: summary of Table I in words
Source text: as §1, §2
Eleven week old mice from the same group fo animals as used in Example 1 were treated by oral administration of 0.25 ml of either minoxidil or minoxidil sulfate in water daily without resting on weekends. Weights were assumed to be an average of 25 g per animal for dosing purposes.

[3] = tested on: stumptail Macque monkeys; test: Hair growth rate on the scalp of balding monkeys, topical solution (Example 4); conditions: for Mean wt. (clipped hair, 2.54 cm square area of treated scalp): topical daily, 250 microliters of 750 mg in 50 ml acetone:N-methylpyrrolidone 94:6
Description: Topical minoxidil sulfate solution was applied to a group of 6 stumptail Macque monkeys daily, 7 days/ week. The topical minoxidil sulfate solution was prepared by dissolving 750 mg of minoxidil sulfate in 50 ml of a 94:6 volume:volume solution of acetone: N-methylpyrrolidone. A second group of 6 animals served as controls and received vehicle only. the volume per application was 250 microliters applied to the frontal scalp with an art brush. Hair growth rate within a 2.54 cm (1 inch) square area of treated scalp was assessed by quantitatively clipping the hair at successive intervals of 42 days, 21 days and 21 days and weighing the residue.

[4] = 20 mg/kg topical in propylene glycol, ethanol and water vehicle
[5] = 40 mg/kg topical in propylene glycol, ethanol and water vehicle

For Nc1cc(N2CCCCC2)nc(N)[n+]1OS(=O)(=O)[O-] [Minoxidil Sulfate, 2,6-Diamino-4-(1-piperidinyl)-1-(sulfoxy)-pyrimidinium hydroxide, inner salt], the “Score of Photos 1+ (Number of animals with at least 1 of 5 photos showing positive hair growth)” value ([1]; 5 mg/kg oral, daily) was 2/5, the “Score of Photos 2+ (Number of animals with at least 2 of 5 photos showing positive hair growth)” value ([1]; 5 mg/kg oral, daily) was 1/5 and the “Score of Photos 1+ (Number of animals with at least 1 of 5 photos showing positive hair growth)” value ([1]; 10 mg/kg oral, daily) was 1/5. The “Score of Photos 2+ (Number of animals with at least 2 of 5 photos showing positive hair growth)” value ([1]; 10 mg/kg oral, daily) was 1/5, the “Score of Photos 1+ (Number of animals with at least 1 of 5 photos showing positive hair growth)” value ([1]; 20 mg/kg oral, daily) was 2/5 and the “Score of Photos 2+ (Number of animals with at least 2 of 5 photos showing positive hair growth)” value ([1]; 20 mg/kg oral, daily) was 1/5. The “Score of Photos 1+ (Number of animals with at least 1 of 5 photos showing positive hair growth)” value [1, 4] was 2/5, the “Score of Photos 2+ (Number of animals with at least 2 of 5 photos showing positive hair growth)” value [1, 4] was 0/5 and the “Score of Photos 1+ (Number of animals with at least 1 of 5 photos showing positive hair growth)” value ([1]; 40 mg/kg oral, daily) was 3/5. For the same compound, the “Score of Photos 2+ (Number of animals with at least 2 of 5 photos showing positive hair growth)” value ([1]; 40 mg/kg oral, daily) was 0/5, the “Score of Photos 1+ (Number of animals with at least 1 of 5 photos showing positive hair growth)” value [1, 5] was 2/5 and the “Score of Photos 2+ (Number of animals with at least 2 of 5 photos showing positive hair growth)” value [1, 5] was 1/5. For the same compound, the “Score of Photos 1+ (Number of animals with at least 1 of 5 photos showing positive hair growth)” value ([2]; 20 mg/kg oral) was 4/5, the “Score of Photos 2+ (Number of animals with at least 2 of 5 photos showing positive hair growth)” value ([2]; 20 mg/kg oral) was 3/5 and the “Score of Photos 1+ (Number of animals with at least 1 of 5 photos showing positive hair growth)” value ([2]; 40 mg/kg oral) was 3/5. The “Score of Photos 2+ (Number of animals with at least 2 of 5 photos showing positive hair growth)” value ([2]; 40 mg/kg oral) was 1/5, the “inducing hair growth, compared with minoxidil” value ([2]; at 20 mg/kg) was “significantly better than minoxidil” and the “inducing hair growth, compared with minoxidil” value ([2]; at 40 mg/kg) was “equipotent to or better than minoxidil”. The “Mean wt. (clipped hair, 2.54 cm square area of treated scalp)” value ([3]; Collection 1 (interval of 42 days)) was 76 ±20 uG/day, the “Mean wt. (clipped hair, 2.54 cm square area of treated scalp)” value ([3]; Collection 2 (next interval of 21 days)) was 313 ±67 uG/day and the “Mean wt. (clipped hair, 2.54 cm square area of treated scalp)” value ([3]; Collection 3 (last interval of 21 days)) was 343 ±52 uG/day. The “hair growth following topical application to the scalp” value ([3]; balding monkeys, summary of Table II in words) was “stimulates hair growth” and the “increase in hair growth versus vehicle” value ([3]; by the third collection, summary of Table II in words) was “statistically significant increase in hair growth”.
